Structures can show the parent of a compound that is named as a salt.
What was measured:
[1] = system: esterase enzyme in the skin; assay: Hydrolysis of penetrated prodrug in the skin after permeation; format: in vitro ADME, Human
Experimental: (§1) Human cadaver skin permeation studies were performed to quantitatively determine the effective permeation of enalapril ethyl ester through the stratum corneum. The stratum corneum was obtained from split thickness, cryo-preserved cadaver skin by the heat separation technique (˜55°). Samples of 5/16″ diameter were cut from the laminate, in triplicate, and mounted onto ½″ cut pieces of the stratum corneum. These samples were then placed on modified Franz diffusion cells. The receptor was filled with 7.5 mL of 0.9% NaCl and 0.01% NaN3 in deionized water. The cells were maintained at a constant 32° C. and were magnetically stirred at approximately 300 rpm. At specified time points, samples of the receptor phase were taken with complete replacement of the receptor phase. These samples were quantified by high-performance liquid chromatography (HPLC) utilizing Waters HPLC instrumentation. C-8(15 cm×4.6 mm) 5 μm particle size columns ([…] made by MetaChem Technologies, Inc.; Torrance, Calif.) were used at 50° C. (column temperature). The mobile phase contained 50% acetonitrile: 50% buffer (10 mM KH2PO4, pH=2.7). The detection wavelength was 214 nm. HPLC flow rate is 1.5 mL/min.
More than 50% of the penetrated enalapril ethyl ester was hydrolyzed into enalaprilat after permeation through the skin.

[2] = Human cadaver skin permeation (flux) study, modified Franz diffusion cells; format: in vitro ADME; details: for flux of a dermal composition: carrier composition of Example 2, different cadaver skin, FIG. 1; for flux through skin (in words): enalapril ethyl ester prodrug compared with enalapril maleate form
Experimental: as §1

| Structure (SMILES) | penetrated enalapril ethyl ester hydrolyzed into enalaprilat ([1]; after permeation through the skin) | hydrolysis of the ethyl ester group on the proline moiety ([1]; by an esterase enzyme in the skin) | flux of a dermal composition [2] | flux through skin (in words) [2] |
| --- | --- | --- | --- | --- |
| CCOC(=O)[C@H](CCc1ccccc1)N[C@@H](C)C(=O)N1CCC[C@H]1C(=O)OCC [enalapril ethyl ester] | More than 50% | selectively hydrolyzed | 4.8 µg/cm²/h | significantly greater |
| CCOC(=O)[C@H](CCc1ccccc1)N[C@@H](C)C(=O)N1CCC[C@H]1C(=O)O [enalapril maleate, reference compound] | – | – | 0.2 μg/cm^2/sec | negligible |

— patent US6805878B2, “Transdermal administration of ACE inhibitors” (Noven Pharmaceuticals, Inc., priority 2001, dated 2004)
